*1 amine or outer side, *2 acyl side, *3 side chain or, on linkers, in order; H or OH if unused. Where a SMILES comes first, the peptide text is derived from it. Side-chain parts run from the residue outwards. [ ]: non-standard residue; d: D form. The star is where a group is joined. ξ: configuration not given here. Pro(4R-OPh) = O=C(O)[C@@H]1C[C@@H](Oc2ccccc2)CN1; CH2(1-naphthyl) = c1ccc2c(C*)cccc2c1; NH(1-naphthyl) = c1ccc2c(N*)cccc2c1; Adipoyl = O=C(CCCCC(=O)[*:2])[*:1]; 1Naphthoyl = O=C(c1cccc2ccccc12)*; 2Naphthoyl = O=C(c1ccc2ccccc2c1)*; Pyrazinecarbonyl = O=C(c1cnccn1)*; Hyp = O=C(O)[C@@H]1C[C@@H](O)CN1; ξAla(CF3) = NC(CC(F)(F)F)C(=O)O; Nva = CCC[C@H](N)C(=O)O; X1 = c1ccc2cc(C*)ccc2c1; X2 = Clc1ccc(Cl)c(N*)c1; X4 = COc1ccc(OC)c(N*)c1; 2Abz = Nc1ccccc1C(=O)O; Abu = CC[C@H](N)C(=O)O; X3 = c1ccc2c(c1)CCCN2*; Aib = CC(C)(N)C(=O)O; CO = O=C([*:1])[*:2]; Bz = O=C(c1ccccc1)*; NHPh = c1ccc(N*)cc1; Bn = c1ccc(C*)cc1
Experiments:
[1] = target: Hepatitis C virus serine protease, NS3/NS4A (Hepatitis C virus, UniProt D2K2A8+A3EZI9); test: (§1) Inhibition of HCV (Hepatitis C Virus) NS3-4A protease.; assay type: protein-complex assay, Hepacivirus hominis
[2] = target: Hepatitis C virus serine protease, NS3/NS4A (Hepatitis C virus, UniProt A3EZI9+D2K2A8); test: as §1; assay type: protein-complex assay, Hepacivirus hominis
Sequence of Hepatitis C virus serine protease, NS3/NS4A (Hepatitis C virus, UniProt A3EZI9+D2K2A8) (D2K2A8 whole entry): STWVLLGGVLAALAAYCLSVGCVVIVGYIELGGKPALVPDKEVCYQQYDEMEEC
Sequence of Hepatitis C virus serine protease, NS3/NS4A (Hepatitis C virus, UniProt A3EZI9+D2K2A8) (A3EZI9 whole entry): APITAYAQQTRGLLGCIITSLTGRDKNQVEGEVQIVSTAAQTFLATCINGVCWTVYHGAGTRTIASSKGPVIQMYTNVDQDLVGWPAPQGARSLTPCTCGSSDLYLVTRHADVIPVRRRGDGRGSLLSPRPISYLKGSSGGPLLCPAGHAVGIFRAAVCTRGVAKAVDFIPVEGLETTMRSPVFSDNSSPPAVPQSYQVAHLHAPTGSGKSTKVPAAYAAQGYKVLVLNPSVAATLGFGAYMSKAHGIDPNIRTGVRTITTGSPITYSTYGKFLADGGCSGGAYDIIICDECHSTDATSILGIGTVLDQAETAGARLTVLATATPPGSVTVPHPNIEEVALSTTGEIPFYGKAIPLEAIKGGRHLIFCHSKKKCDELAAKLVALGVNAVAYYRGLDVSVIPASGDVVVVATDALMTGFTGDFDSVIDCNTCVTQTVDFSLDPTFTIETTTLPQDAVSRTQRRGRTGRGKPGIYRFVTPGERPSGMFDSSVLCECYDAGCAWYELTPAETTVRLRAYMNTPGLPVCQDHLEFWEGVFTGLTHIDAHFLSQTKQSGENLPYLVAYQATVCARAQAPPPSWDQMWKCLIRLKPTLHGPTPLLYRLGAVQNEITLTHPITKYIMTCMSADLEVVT

Sequence of Hepatitis C virus serine protease, NS3/NS4A (Hepatitis C virus, UniProt D2K2A8+A3EZI9) (D2K2A8 whole entry): as the sequence (D2K2A8 whole entry) above
Sequence of Hepatitis C virus serine protease, NS3/NS4A (Hepatitis C virus, UniProt D2K2A8+A3EZI9) (A3EZI9 whole entry): as the sequence (A3EZI9 whole entry) above

SMILES | Ki [1] [µM] | Ki [2] [µM]
CC[C@@H](C=O)NC(=O)[C@@H]1C[C@@H](OC(=O)c2ccccc2)CN1C(=O)[C@@H](NC(=O)[C@@H](NC(=O)c1cnccn1)C(C)C)C(C)C (Pyrazinecarbonyl-VV[Hyp](Bz)[Abu]-aldehyde) | 5.8 | –
CC[C@@H](C=O)NC(=O)[C@@H]1C[C@@H](Oc2cccc3ccccc23)CN1C(=O)[C@@H](NC(=O)[C@@H](NC(=O)c1cnccn1)C(C)C)C(C)C | 2.1 | –
CCC[C@@H](C=O)NC(=O)[C@@H]1C[C@@H](OCc2ccccc2)CN1C(=O)[C@@H](NC(=O)[C@@H](NC(=O)c1cnccn1)C(C)C)C(C)C (Pyrazinecarbonyl-VV[Hyp](Bn)[Nva]-aldehyde) | – | 3.8
CC[C@@H](C=O)NC(=O)[C@@H]1C[C@@H](OC(=O)Nc2ccccc2)CN1C(=O)[C@@H](NC(=O)[C@@H](NC(=O)c1cnccn1)C(C)C)C(C)C (Pyrazinecarbonyl-VV[Hyp]([CO-NHPh])[Abu]-aldehyde) | 22.3 | –
CC[C@@H](C=O)NC(=O)[C@@H]1C[C@@H](OC(=O)c2ccc3ccccc3c2)CN1C(=O)[C@@H](NC(=O)[C@@H](NC(=O)CCCCC(=O)O)C(C)C)C(C)C (Adipoyl-VV[Hyp](2Naphthoyl)[Abu]-aldehyde) | 0.11 | –
CC(C)[C@H](NC(=O)c1cnccn1)C(=O)N[C@H](C(=O)N1C[C@H](OCc2ccccc2)C[C@H]1C(=O)NC(C)(C)C=O)C(C)C (Pyrazinecarbonyl-VV[Hyp](Bn)[Aib]-aldehyde) | – | > 50
CC[C@@H](C=O)NC(=O)[C@@H]1C[C@@H](OC(=O)Nc2ccccc2C(=O)OC)CN1C(=O)[C@@H](NC(=O)[C@@H](NC(=O)c1cnccn1)C(C)C)C(C)C (Pyrazinecarbonyl-VV[Hyp]([CO-2Abz-OMe])[Abu]-aldehyde) | 2.5 | –
CC[C@@H](C=O)NC(=O)[C@@H]1C[C@@H](Oc2ccccc2)CN1C(=O)[C@@H](NC(=O)[C@@H](NC(=O)c1cnccn1)C(C)C)C(C)C (Pyrazinecarbonyl-VV[Pro(4R-OPh)][Abu]-aldehyde) | 3.9 | –
CC[C@@H](C=O)NC(=O)[C@@H]1C[C@@H](OC(=O)c2cccc3ccccc23)CN1C(=O)[C@@H](NC(=O)[C@@H](NC(=O)c1cnccn1)C(C)C)C(C)C (Pyrazinecarbonyl-VV[Hyp](1Naphthoyl)[Abu]-aldehyde) | 1.9 | –
CC[C@@H](C=O)NC(=O)[C@@H]1C[C@@H](Oc2cccc3cccnc23)CN1C(=O)[C@@H](NC(=O)[C@@H](NC(=O)c1cnccn1)C(C)C)C(C)C | > 50 | –
CC[C@@H](C=O)NC(=O)[C@@H]1C[C@@H](OCc2ccc3ccccc3c2)CN1C(=O)[C@@H](NC(=O)[C@@H](NC(=O)c1cnccn1)C(C)C)C(C)C (Pyrazinecarbonyl-VV[Hyp](X1)[Abu]-aldehyde) | 1.7 | –
CC[C@@H](C=O)NC(=O)[C@@H]1C[C@@H](OC(=O)c2ccc3ccccc3c2)CN1C(=O)[C@@H](NC(=O)[C@@H](NC(=O)c1cnccn1)C(C)C)C(C)C (Pyrazinecarbonyl-VV[Hyp](2Naphthoyl)[Abu]-aldehyde) | 0.4 | –
CC[C@@H](C=O)NC(=O)[C@@H]1C[C@@H](OCc2ccccc2)CN1C(=O)[C@@H](NC(=O)[C@@H](NC(=O)c1cnccn1)C(C)C)C(C)C (Pyrazinecarbonyl-VV[Hyp](Bn)[Abu]-aldehyde) | – | 12
CC[C@@H](C=O)NC(=O)[C@@H]1C[C@@H](OC(=O)Nc2cccc3ccccc23)CN1C(=O)[C@@H](NC(=O)[C@@H](NC(=O)c1cnccn1)C(C)C)C(C)C (Pyrazinecarbonyl-VV[Hyp]([CO-NH(1-naphthyl)])[Abu]-aldehyde) | 12.5 | –
CC[C@@H](C=O)NC(=O)[C@@H]1C[C@@H](OC(=O)Nc2cc(Cl)ccc2Cl)CN1C(=O)[C@@H](NC(=O)[C@@H](NC(=O)c1cnccn1)C(C)C)C(C)C (Pyrazinecarbonyl-VV[Hyp]([CO-X2])[Abu]-aldehyde) | 3.2 | –
CC[C@@H](C=O)NC(=O)[C@@H]1C[C@@H](OC(=O)N2CCCc3ccccc32)CN1C(=O)[C@@H](NC(=O)[C@@H](NC(=O)c1cnccn1)C(C)C)C(C)C (Pyrazinecarbonyl-VV[Hyp]([CO-X3])[Abu]-aldehyde) | 0.89 | –
CC[C@@H](C=O)NC(=O)[C@@H]1C[C@@H](Oc2ccc3ccccc3c2)CN1C(=O)[C@@H](NC(=O)[C@@H](NC(=O)c1cnccn1)C(C)C)C(C)C | 7.4 | –
CC[C@@H](C=O)NC(=O)[C@@H]1C[C@@H](OCc2ccccc2)CN1C(=O)[C@@H](NC(=O)[C@@H](NC(=O)[C@H](CC(=O)O)NC(=O)[C@H](CCC(=O)O)NC(C)=O)C(C)C)C(C)C (Ac-EDVV[Hyp](Bn)[Abu]-aldehyde) | – | 0.89
CC[C@@H](C=O)NC(=O)[C@@H]1C[C@@H](OC(=O)Nc2cc(OC)ccc2OC)CN1C(=O)[C@@H](NC(=O)[C@@H](NC(=O)c1cnccn1)C(C)C)C(C)C (Pyrazinecarbonyl-VV[Hyp]([CO-X4])[Abu]-aldehyde) | 7.9 | –
CC(C)[C@H](NC(=O)c1cnccn1)C(=O)N[C@H](C(=O)N1C[C@H](OCc2ccccc2)C[C@H]1C(=O)NC(C=O)CC(F)(F)F)C(C)C (some centres not stated) (Pyrazinecarbonyl-VV[Hyp](Bn)[ξAla(CF3)]-aldehyde) | – | 3.1
COC[C@@H](C=O)NC(=O)[C@@H]1C[C@@H](OCc2ccccc2)CN1C(=O)[C@@H](NC(=O)[C@@H](NC(=O)c1cnccn1)C(C)C)C(C)C (Pyrazinecarbonyl-VV[Hyp](Bn)S(Me)-aldehyde) | – | > 50
CC[C@@H](C=O)NC(=O)[C@@H]1C[C@@H](OCc2cccc3ccccc23)CN1C(=O)[C@@H](NC(=O)[C@@H](NC(=O)c1cnccn1)C(C)C)C(C)C (Pyrazinecarbonyl-VV[Hyp](CH2(1-naphthyl))[Abu]-aldehyde) | 2.9 | –

— ChEMBL document CHEMBL1136438, “Inhibitors of hepatitis C virus NS3.4A protease 1. Non-charged tetrapeptide variants” (Bioorg Med Chem Lett, 2003)
